Tests used:
human PTPN2 (1-387) = human PTPN2 (1-387) (Homo sapiens (Human), UniProt P17706); assay: Human PTPN2 Biochemical Assay; details: DiFMUP substrate
Procedure, shortened: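 Fluorogenic DiFMUP hydrolysis (1 h, room temperature, read ex 360/em 460 nm) after 30 min compound preincubation with PTPN2 residues 1-387, in 50 mM Tris pH 7.4, 150 mM NaCl, 0.01% Tween20, 0.5 mM DTT. Effects scaled between buffer and enzyme controls, 4-parameter fit gives EC50.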

human PTPN1 (1-435) = human PTPN1 (1-435) (Homo sapiens (Human), UniProt P18031); assay: Human PTPN1 Biochemical Assay; details: DiFMUP substrate, read-out: PTP1B IC50
Procedure, shortened: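 Read-out is DiFMUP hydrolysis fluorescence (360 nm excitation, 460 nm emission) after 1 h at room temperature, following 30 min enzyme–compound preincubation.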

Chain of human PTPN2 (1-387) (P17706 other isoform, or with tags, fused parts or gaps): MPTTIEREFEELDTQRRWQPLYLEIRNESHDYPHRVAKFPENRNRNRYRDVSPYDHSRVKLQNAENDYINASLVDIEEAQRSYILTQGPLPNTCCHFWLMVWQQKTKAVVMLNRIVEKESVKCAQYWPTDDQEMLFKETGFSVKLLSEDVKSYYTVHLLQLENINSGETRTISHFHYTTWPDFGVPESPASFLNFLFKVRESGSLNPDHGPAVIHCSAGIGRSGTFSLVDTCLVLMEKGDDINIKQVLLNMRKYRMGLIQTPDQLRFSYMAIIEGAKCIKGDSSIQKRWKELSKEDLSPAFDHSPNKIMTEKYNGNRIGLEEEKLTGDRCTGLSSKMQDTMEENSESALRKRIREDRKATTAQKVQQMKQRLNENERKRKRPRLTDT
Chain of human PTPN1 (1-435) (P18031 whole entry): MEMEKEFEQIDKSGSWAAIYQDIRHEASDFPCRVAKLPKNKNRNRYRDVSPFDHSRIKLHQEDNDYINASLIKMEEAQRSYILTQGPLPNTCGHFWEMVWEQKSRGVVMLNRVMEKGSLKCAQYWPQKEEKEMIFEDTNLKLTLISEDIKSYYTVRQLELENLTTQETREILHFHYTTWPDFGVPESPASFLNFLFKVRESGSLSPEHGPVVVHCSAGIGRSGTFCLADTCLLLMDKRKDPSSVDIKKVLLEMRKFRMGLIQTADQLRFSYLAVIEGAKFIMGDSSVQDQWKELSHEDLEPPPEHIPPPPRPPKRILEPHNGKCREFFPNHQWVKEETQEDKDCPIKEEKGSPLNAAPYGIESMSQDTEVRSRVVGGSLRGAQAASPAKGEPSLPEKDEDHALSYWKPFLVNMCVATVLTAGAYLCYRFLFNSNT

Row | Compound | IC50 (human PTPN2 (1-387)) [nM] | IC50 (human PTPN1 (1-435)) [nM]
1 | C#Cc1cc(OCCCC(F)(F)F)c2sc(C(F)(F)P(=O)(O)O)c(Br)c2c1 [Compound 405, ((3-bromo-5-ethynyl-7-(4,4,4-trifluorobutoxy)benzo[b]thiophen-2-yl)difluoromethyl)phosphonic acid] | 288 | 290
2 | O=P(O)(O)C(F)(F)c1sc2c(OCCCC(F)(F)F)cc(I)cc2c1Br [Compound 406, ((3-bromo-5-iodo-7-(4,4,4-trifluorobutoxy)benzo[b]thiophen-2-yl)difluoromethyl)phosphonic acid] | 518 | 487
3 | O=P(O)(O)C(F)(F)c1sc2c(OCCCC(F)(F)F)cc(CO)cc2c1Br [Compound 408] | 684 | 518
4 | CNC(=O)c1cc(OCc2ccc(S(C)(=O)=O)cc2)c2sc(C(F)(F)P(=O)(O)O)c(Br)c2c1 [Compound 409] | 2.6 | 3.7
5 | O=P(O)(O)C(F)(F)c1sc2c(OCCCC(F)(F)F)cccc2c1Br [Compound 410, ((3-bromo-7-(4,4,4-trifluorobutoxy)benzo[b]thiophen-2-yl)difluoromethyl)phosphonic acid] | 225 | 281
6 | CS(=N)(=O)Cc1cc(OCCCC(F)(F)F)c2sc(C(F)(F)P(=O)(O)O)c(Br)c2c1 (stereo not drawn) [Compound 412] | 359 | 323
7 | CS(=N)(=O)c1cc(OCCCC(F)(F)F)c2sc(C(F)(F)P(=O)(O)O)c(Br)c2c1 (stereo not drawn) [Compound 413] | 7400 | 4080
8 | CS(=N)(=O)c1cc(OCCCC(F)(F)F)c2sc(C(F)(F)P(=O)(O)O)c(Br)c2c1 (stereo not drawn) [Compound 414] | 6700 | 3590
9 | NC(=O)c1cc(-c2cc[nH]n2)c2sc(C(F)(F)P(=O)(O)O)c(Br)c2c1 [Compound 415, ((3-bromo-5-carbamoyl-7-(1H-pyrazol-3-yl)benzo[b]thiophen-2-yl)difluoromethyl)phosphonic acid] | 3840 | 3930
10 | O=P(O)(O)C(F)(F)c1sc2c(OCCCC(F)(F)F)cc(-c3c[nH]cn3)cc2c1Br [Compound 416, ((3-bromo-5-(1H-imidazol-4-yl)-7-(4,4,4-trifluorobutoxy)benzo[b]thiophen-2-yl)difluoromethyl)phosphonic acid] | 92 | 137
11 | O=P(O)(O)C(F)(F)c1sc2c(OCCCC(F)(F)F)cc(-c3nnc(C4CC4)[nH]3)cc2c1Br [Compound 418] | 2.7 | 2.5
12 | O=P(O)(O)C(F)(F)c1sc2c(OCCCC(F)(F)F)cc(-c3nnc(C(F)(F)F)[nH]3)cc2c1Br [Compound 420, ((3-bromo-7-(4,4,4-trifluorobutoxy)-5-(5-(trifluoromethyl)-4H-1,2,4-triazol-3-yl)benzo[b]thiophen-2-yl)difluoromethyl)phosphonic acid] | 2.85 | 2.7
13 | Cc1c(C(F)(F)P(=O)(O)O)sc2c(OCC3CC3(F)F)cc(C(N)=O)cc12 (stereo not drawn) [Compound 434] | 438 | 482
14 | Cc1c(C(F)(F)P(=O)(O)O)sc2c(OCC3CC3(F)F)cc(C(N)=O)cc12 (stereo not drawn) [Compound 435] | 130 | 207
15 | Cc1c(C(F)(F)P(=O)(O)O)sc2c(OCCCS(C)(=O)=O)cc(-c3nc[nH]n3)cc12 [Compound 436] | 6.6 | 6.7
16 | Cc1c(C(F)(F)P(=O)(O)O)sc2c(OCc3ccc(S(C)(=O)=O)cc3)cc(C(N)=O)cc12 [Compound 438] | 21.5 | 27.4
17 | O=P(O)(O)C(F)(F)c1sc2c(OCC3CC3(F)F)cc(-c3nc[nH]n3)cc2c1Br (stereo not drawn) [Compound 441] | 2.5 | 2.5
18 | O=P(O)(O)C(F)(F)c1sc2c(OCC3CC3(F)F)cc(-c3nc[nH]n3)cc2c1Br (stereo not drawn) [Compound 442] | 5.56 | 5
19 | CS(=O)(=O)c1ccc(COc2cc(-c3nc[nH]n3)cc3c(Br)c(C(F)(F)P(=O)(O)O)sc23)cc1 [Compound 444] | < 2.5 | < 2.5
20 | CCCC(CO)Oc1cc(C(N)=O)cc2c(Br)c(C(F)(F)P(=O)(O)O)sc12 (stereo not drawn) [Compound 447, ((3-bromo-5-carbamoyl-7-((1-hydroxypentan-2-yl)oxy)benzo[b]thiophen-2-yl)difluoromethyl)phosphonic acid] | 500 | 231
21 | N#CCc1cc(OCCCC(F)(F)F)c2sc(C(F)(F)P(=O)(O)O)c(Br)c2c1 [Compound 448, ((3-bromo-5-(cyanomethyl)-7-(4,4,4-trifluorobutoxy)benzo[b]thiophen-2-yl)difluoromethyl)phosphonic acid] | 316 | 230
22 | CC(=O)NCc1cc(OCCCC(F)(F)F)c2sc(C(F)(F)P(=O)(O)O)c(Br)c2c1 [Compound 449, ((5-(acetamidomethyl)-3-bromo-7-(4,4,4-trifluorobutoxy)benzo[b]thiophen-2-yl)difluoromethyl)phosphonic acid] | 1190 | 812
23 | CS(=O)(=O)NCc1cc(OCCCC(F)(F)F)c2sc(C(F)(F)P(=O)(O)O)c(Br)c2c1 [Compound 450, ((3-bromo-5-(methylsulfonamidomethyl)-7-(4,4,4-trifluorobutoxy)benzo[b]thiophen-2-yl)difluoromethyl)phosphonic acid] | 227 | 175
24 | Cc1c(C(F)(F)P(=O)(O)O)sc2c(OCCCS(C)(=O)=O)cc(-c3c[nH]nn3)cc12 [Compound 451, (difluoro(3-methyl-7-(3-(methylsulfonyl)propoxy)-5-(1H-1,2,3-triazol-4-yl)benzo[b]thiophen-2-yl)methyl)phosphonic acid] | 14.6 | 16.5
25 | Cc1ncc(-c2cc(OCCCC(F)(F)F)c3sc(C(F)(F)P(=O)(O)O)c(Br)c3c2)[nH]1 [Compound 452, ((3-bromo-5-(2-methyl-1H-imidazol-5-yl)-7-(4,4,4-trifluorobutoxy)benzo[b]thiophen-2-yl)difluoromethyl)phosphonic acid] | 63.9 | 71.9

Next, values leading:

Row | IC50 (human PTPN2 (1-387)) [nM] | IC50 (human PTPN1 (1-435)) [nM] | Compound
26 | 200 | 191 | O=C(O)c1cc(OCCCC(F)(F)F)c2sc(C(F)(F)P(=O)(O)O)c(Br)c2c1 [Compound 407]
27 | 4.87 | 11.9 | CS(=O)(=O)CCCOc1cc(C(N)=O)cc2c(C#N)c(C(F)(F)P(=O)(O)O)sc12 [Compound 421, ((5-carbamoyl-3-cyano-7-(3-(methylsulfonyl)propoxy)benzo[b]thiophen-2-yl)difluoromethyl)phosphonic acid]
28 | 7.84 | 11.7 | CNC(=O)c1cc(OCCCS(C)(=O)=O)c2sc(C(F)(F)P(=O)(O)O)c(C#N)c2c1 [Compound 422]
29 | 9.7 | 11.5 | N#Cc1c(C(F)(F)P(=O)(O)O)sc2c(OCCCS(N)(=O)=O)cc(C(N)=O)cc12 [Compound 423]
30 | 6.69 | 19.7 | N#Cc1c(C(F)(F)P(=O)(O)O)sc2c(OCCCC(F)(F)F)cc(C(N)=O)cc12 [Compound 424]
31 | 22.8 | 30.8 | N#Cc1c(C(F)(F)P(=O)(O)O)sc2c(OCC3CC3(F)F)cc(C(N)=O)cc12 (stereo not drawn) [Compound 425]
32 | 10.2 | 13.7 | N#Cc1c(C(F)(F)P(=O)(O)O)sc2c(OCC3CC3(F)F)cc(C(N)=O)cc12 (stereo not drawn) [Compound 426]
33 | 3.63 | 5.4 | CNC(=O)c1cc(OCCCS(N)(=O)=O)c2sc(C(F)(F)P(=O)(O)O)c(C#N)c2c1 [Compound 427]
34 | 2.5 | 2.5 | CS(=O)(=O)CCCOc1cc(-c2nc[nH]n2)cc2c(C#N)c(C(F)(F)P(=O)(O)O)sc12 [Compound 428]
35 | 87.2 | 82.1 | Cc1c(C(F)(F)P(=O)(O)O)sc2c(OCCCS(C)(=O)=O)cc(C(N)=O)cc12 [Compound 429, ((5-carbamoyl-3-methyl-7-(3-(methylsulfonyl)propoxy)benzo[b]thiophen-2-yl)difluoromethyl)phosphonic acid]
36 | 109 | 61.7 | CNC(=O)c1cc(OCCCS(C)(=O)=O)c2sc(C(F)(F)P(=O)(O)O)c(C)c2c1 [Compound 430]
37 | 119 | 99.3 | Cc1c(C(F)(F)P(=O)(O)O)sc2c(OCCCC(F)(F)F)cc(C(N)=O)cc12 [Compound 431]
38 | 114 | 117 | Cc1c(C(F)(F)P(=O)(O)O)sc2c(OCCCS(N)(=O)=O)cc(C(N)=O)cc12 [Compound 432]
39 | 33 | 29.3 | CNC(=O)c1cc(OCCCS(N)(=O)=O)c2sc(C(F)(F)P(=O)(O)O)c(C)c2c1 [Compound 433]
40 | 109 | 153 | Cc1c(C(F)(F)P(=O)(O)O)sc2c(OCCCC(C)(C)O)cc(C(N)=O)cc12 [Compound 437]
41 | 2.5 | 2.5 | CS(=O)(=O)CCCOc1cc(-c2nc[nH]n2)cc2c(Br)c(C(F)(F)P(=O)(O)O)sc12 [Compound 439, ((3-bromo-7-(3-(methylsulfonyl)propoxy)-5-(1H-1,2,4-triazol-3-yl)benzo[b]thiophen-2-yl)difluoromethyl)phosphonic acid]
42 | 2.5 | 2.5 | NS(=O)(=O)CCCOc1cc(-c2nc[nH]n2)cc2c(Br)c(C(F)(F)P(=O)(O)O)sc12 [Compound 440]
43 | 6.17 | 5.1 | Cc1c(C(F)(F)P(=O)(O)O)sc2c(OCCCS(N)(=O)=O)cc(-c3nc[nH]n3)cc12 [Compound 443]
44 | 15.5 | 12.7 | CS(=O)(=O)CCCOc1cc(C(N)=O)cc2c(C(F)(F)F)c(C(F)(F)P(=O)(O)O)sc12 [Compound 445, ((5-carbamoyl-7-(3-(methylsulfonyl)propoxy)-3-(trifluoromethyl)benzo[b]thiophen-2-yl)difluoromethyl)phosphonic acid]
45 | 14.7 | 18.2 | NC(=O)c1cc(OCCCS(N)(=O)=O)c2sc(C(F)(F)P(=O)(O)O)c(C(F)(F)F)c2c1 [Compound 446]
